Consider three compounds from ChEMBL document CHEMBL1201862, “PubChem BioAssay data set” (2004).

Activity calls are given as the source filed them.

One assay has as its target T1, Exodeoxyribonuclease V (Escherichia coli (strain K12), UniProt P04993+P07648+P08394).
T1 sequence (P04993 whole entry): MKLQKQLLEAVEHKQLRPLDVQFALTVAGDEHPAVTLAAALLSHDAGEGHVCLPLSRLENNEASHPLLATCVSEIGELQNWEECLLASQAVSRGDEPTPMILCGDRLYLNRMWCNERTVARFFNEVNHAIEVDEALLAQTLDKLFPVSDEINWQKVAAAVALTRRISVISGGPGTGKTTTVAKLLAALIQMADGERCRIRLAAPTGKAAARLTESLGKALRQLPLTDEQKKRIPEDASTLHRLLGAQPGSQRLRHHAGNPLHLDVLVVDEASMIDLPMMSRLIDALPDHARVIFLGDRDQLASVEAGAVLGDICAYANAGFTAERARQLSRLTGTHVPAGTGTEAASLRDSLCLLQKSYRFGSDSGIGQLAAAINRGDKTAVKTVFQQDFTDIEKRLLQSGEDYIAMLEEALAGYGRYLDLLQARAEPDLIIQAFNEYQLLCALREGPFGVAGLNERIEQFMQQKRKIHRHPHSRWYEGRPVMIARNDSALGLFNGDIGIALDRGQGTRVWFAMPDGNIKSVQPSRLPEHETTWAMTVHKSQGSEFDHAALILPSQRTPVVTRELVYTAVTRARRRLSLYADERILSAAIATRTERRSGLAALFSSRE
T1 sequence (P07648 whole entry): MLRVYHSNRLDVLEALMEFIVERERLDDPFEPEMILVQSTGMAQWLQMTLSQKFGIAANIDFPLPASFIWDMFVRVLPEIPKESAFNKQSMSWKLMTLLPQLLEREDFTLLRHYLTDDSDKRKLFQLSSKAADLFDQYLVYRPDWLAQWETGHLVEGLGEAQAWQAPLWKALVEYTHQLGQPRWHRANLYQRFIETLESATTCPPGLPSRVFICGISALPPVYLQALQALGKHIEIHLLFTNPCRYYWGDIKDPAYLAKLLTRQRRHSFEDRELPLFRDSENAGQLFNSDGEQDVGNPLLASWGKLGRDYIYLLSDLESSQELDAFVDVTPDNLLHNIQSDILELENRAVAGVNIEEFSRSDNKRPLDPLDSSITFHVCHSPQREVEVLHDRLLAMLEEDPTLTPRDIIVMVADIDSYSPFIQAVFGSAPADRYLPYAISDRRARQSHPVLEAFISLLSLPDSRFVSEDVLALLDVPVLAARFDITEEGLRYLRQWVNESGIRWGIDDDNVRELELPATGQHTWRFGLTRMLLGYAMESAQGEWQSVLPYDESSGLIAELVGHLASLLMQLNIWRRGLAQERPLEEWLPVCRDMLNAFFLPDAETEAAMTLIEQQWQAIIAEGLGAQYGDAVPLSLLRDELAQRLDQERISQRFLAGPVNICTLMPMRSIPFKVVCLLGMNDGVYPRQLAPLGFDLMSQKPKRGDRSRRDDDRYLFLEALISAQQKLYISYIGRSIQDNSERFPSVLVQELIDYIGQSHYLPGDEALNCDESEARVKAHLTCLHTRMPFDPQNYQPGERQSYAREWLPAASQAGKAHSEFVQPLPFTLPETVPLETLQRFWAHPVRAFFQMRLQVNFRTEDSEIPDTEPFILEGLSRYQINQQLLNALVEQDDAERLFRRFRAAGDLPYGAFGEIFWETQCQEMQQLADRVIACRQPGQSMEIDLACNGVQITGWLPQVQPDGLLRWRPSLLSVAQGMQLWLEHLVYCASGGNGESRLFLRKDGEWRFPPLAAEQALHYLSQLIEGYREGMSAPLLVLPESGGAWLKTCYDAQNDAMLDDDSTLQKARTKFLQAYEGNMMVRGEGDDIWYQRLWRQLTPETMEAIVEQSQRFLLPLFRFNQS
T1 sequence (P08394 whole entry): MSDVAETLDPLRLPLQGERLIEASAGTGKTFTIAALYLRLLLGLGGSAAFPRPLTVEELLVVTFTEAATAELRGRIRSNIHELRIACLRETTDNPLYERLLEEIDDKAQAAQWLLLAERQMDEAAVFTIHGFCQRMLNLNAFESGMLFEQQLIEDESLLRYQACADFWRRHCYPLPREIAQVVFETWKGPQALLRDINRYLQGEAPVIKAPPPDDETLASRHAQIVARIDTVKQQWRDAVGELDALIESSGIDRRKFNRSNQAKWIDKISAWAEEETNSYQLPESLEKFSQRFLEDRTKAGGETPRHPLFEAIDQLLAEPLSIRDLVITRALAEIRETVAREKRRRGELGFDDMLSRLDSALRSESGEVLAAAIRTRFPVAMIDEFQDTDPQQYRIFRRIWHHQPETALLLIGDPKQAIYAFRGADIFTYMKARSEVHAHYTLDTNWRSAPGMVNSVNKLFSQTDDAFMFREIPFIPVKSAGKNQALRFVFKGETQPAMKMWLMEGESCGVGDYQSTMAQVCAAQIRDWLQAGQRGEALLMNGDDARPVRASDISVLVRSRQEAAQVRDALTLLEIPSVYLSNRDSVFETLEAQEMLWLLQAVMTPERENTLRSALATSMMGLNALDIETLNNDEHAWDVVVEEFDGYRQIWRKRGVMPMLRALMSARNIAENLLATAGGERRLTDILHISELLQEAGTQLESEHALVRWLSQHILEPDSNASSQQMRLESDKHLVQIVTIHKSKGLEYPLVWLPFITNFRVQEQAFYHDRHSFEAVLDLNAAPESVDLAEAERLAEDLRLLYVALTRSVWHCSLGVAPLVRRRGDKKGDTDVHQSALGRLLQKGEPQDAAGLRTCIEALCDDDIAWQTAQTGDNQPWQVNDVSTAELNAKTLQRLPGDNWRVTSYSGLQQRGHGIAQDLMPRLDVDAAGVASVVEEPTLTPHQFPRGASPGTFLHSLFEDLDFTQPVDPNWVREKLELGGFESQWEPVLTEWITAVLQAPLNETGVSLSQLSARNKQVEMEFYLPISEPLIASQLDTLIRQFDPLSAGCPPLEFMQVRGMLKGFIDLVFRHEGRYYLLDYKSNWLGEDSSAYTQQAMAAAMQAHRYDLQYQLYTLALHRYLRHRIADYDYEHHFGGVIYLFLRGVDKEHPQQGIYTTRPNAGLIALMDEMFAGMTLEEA
The experiment in a line: E. coli RecBCD inhibitors, dose response, counter-screen for AddAB inhibitor project, absorbance, V66 E. coli, mutant T4 phage (AID 492957). Type of assay: functional, cell-based, Escherichia coli str. K-12 substr. MG1655.

A short description of assay [1]: HEK293T cell cytotoxicity, dose response, cytotoxicity control, CellTiter-Glo luminescence, dry powder, set 2 (AID 720595). In kind it is functional, cell-based. To be noted: HEK293.
Assay [2] deals with cAMP-dependent protein kinase catalytic subunit alpha (Homo sapiens, UniProt P17612). Type of assay: functional.
In assay [3] the target is Serine/threonine-protein kinase Chk1 (Homo sapiens, UniProt O14757). Type of assay: functional.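 Also: measured as one member of a kinome-wide kinase profiling panel.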
The target in assay [4] is Cyclin-dependent kinase 9 (Homo sapiens, UniProt P50750). In kind it is functional.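 Also: value from the CDK9 entry of a kinome-spanning kinase panel.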
Cyclin-dependent kinase 9, sequence (P50750 whole entry): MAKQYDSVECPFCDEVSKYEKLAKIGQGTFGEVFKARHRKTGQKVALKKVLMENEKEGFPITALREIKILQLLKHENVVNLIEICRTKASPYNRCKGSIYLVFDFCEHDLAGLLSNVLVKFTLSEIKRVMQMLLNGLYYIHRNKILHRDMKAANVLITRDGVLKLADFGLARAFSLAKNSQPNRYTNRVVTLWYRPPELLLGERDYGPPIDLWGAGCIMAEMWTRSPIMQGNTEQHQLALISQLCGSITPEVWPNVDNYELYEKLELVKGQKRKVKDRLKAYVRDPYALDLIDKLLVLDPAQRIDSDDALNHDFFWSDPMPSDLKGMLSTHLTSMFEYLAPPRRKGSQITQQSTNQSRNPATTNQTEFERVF

Serine/threonine-protein kinase Chk1, sequence (O14757 whole entry): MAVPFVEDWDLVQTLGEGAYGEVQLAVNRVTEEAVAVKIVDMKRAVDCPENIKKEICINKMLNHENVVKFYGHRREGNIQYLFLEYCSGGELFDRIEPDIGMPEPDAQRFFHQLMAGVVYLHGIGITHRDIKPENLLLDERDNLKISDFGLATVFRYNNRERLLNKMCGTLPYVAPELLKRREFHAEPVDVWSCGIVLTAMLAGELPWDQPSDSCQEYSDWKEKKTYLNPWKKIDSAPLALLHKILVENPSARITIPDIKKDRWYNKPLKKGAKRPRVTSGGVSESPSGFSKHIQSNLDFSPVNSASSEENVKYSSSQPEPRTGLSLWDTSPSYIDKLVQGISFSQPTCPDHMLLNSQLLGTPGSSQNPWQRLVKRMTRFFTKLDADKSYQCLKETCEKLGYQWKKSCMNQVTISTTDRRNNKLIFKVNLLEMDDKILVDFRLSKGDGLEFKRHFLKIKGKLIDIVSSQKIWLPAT

For `CC(C)CC(=O)NC(c1cccs1)c1ccc2cccnc2c1O` (stereo unspecified), the IC50 on Exodeoxyribonuclease V was > 119000 nM (inactive). The AC50 in assay [1] is 1750 nM (active).
`NC1CCC(Nc2nc(Cl)cc(-c3c[nH]c4ncccc34)n2)CC1` (stereo unspecified): in assay [2], the Ki was 7.94 nM (active) and the negative logarithm of the Ki (pKi) is recorded as 8.1.
Regarding `O=C(O)C1CN(Cc2ccc(OCc3ccccc3)cc2Cl)C1`, the Ki in assay [3] was > 3160 nM (inactive); in assay [4] it was > 1580 nM (inactive).
